# Source: patent US7932270B2 (Cytokinetics, Inc., priority 2006, dated 2011)
# Molecular target: T1, chicken gizzard smooth muscle myosin subfragment-1 chemically crosslinked to cardiac or skeletal actin (Gallus gallus, UniProt P10587)
# T1 construct: chicken gizzard smooth muscle myosin subfragment-1; from tissue; host or cells: chicken gizzard
# Test: Smooth muscle myosin ATPase dose response assay (pyruvate kinase/horseradish peroxidase/pyruvate oxidase-coupled, amplex red fluorescence)
# Assay type: biochemical
# Conditions: read-out: IC50 Arithmetic Mean
# In short: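 EDC/NHS-crosslinked S1–actin, amount set per prep by rate titration. Buffer: 12 mM K-PIPES pH 7.00 (22° C), 100 mM KCl, 2 mM MgCl2, 0.15 mM ATP, 0.1 mM PEP, 2 mM KPi, 0.1 mM amplex red. Read ex 480/em 615 nm; IC50 = midpoint, 4-param Hill fit.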
# T1 sequence (P02607 2-151): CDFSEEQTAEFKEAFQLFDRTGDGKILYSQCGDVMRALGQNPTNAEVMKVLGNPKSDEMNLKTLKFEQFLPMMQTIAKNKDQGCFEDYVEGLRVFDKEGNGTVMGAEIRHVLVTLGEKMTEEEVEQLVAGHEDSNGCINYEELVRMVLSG
# T1 sequence (P10587 84-789): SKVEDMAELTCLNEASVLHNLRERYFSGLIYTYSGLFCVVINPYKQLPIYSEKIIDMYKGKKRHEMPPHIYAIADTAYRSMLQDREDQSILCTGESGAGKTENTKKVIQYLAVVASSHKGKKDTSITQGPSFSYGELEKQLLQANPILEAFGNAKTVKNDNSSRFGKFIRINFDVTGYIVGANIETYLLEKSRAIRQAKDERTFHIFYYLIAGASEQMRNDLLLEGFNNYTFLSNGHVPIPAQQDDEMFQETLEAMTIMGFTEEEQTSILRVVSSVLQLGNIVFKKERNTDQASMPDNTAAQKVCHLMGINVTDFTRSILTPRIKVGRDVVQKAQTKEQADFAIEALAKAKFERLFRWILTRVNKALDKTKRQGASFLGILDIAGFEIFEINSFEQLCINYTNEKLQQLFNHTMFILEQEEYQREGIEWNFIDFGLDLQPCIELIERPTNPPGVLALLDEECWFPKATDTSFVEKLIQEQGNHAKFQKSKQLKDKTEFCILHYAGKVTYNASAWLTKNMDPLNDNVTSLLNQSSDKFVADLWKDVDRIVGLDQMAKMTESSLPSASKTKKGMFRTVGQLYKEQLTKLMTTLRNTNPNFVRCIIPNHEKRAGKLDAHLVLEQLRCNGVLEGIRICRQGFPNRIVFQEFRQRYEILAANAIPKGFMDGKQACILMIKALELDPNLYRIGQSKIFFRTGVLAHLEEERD
row,Structure (SMILES),IC50 [nM]
1,N#Cc1ccccc1-c1ccc(C(=O)NC[C@H]2CCCN(C(=O)CCCN)C2)c(NCCc2cccc(F)c2)n1 [N-{[(3R)-1-(4-aminobutanoyl)(3-piperidyl)]methyl}(6-(2-cyanophenyl)-2-{[2-(3-fluorophenyl)ethyl]amino}(3-pyridyl))carboxamide],512
2,CC(=O)N1CCNC[C@@H]1CNC(=O)c1ccc(-c2ccccc2C#N)nc1NCCc1cccc(F)c1 [N-[((2R)-1-acetylpiperazin-2-yl)methyl](6-(2-cyanophenyl)-2-{[2-(3-fluorophenyl)ethyl]amino}(3-pyridyl))carboxamide],7440
3,CC(C)(CNC(=O)c1ccc(-c2ccccc2C#N)nc1NCCc1cccc(F)c1)NC(=O)CCCNC(=O)OC(C)(C)C,194
4,O=C(NCc1cccnc1)c1cc(F)c(-c2cn[nH]c2)nc1NCCc1cccc(F)c1 [(5-fluoro-2-{[2-(3-fluorophenyl)ethyl]amino}-6-pyrazol-4-yl(3-pyridyl))-N-(3-pyridylmethyl)carboxamide],18
5,C[C@H](N)C(=O)N1CCCC1CNC(=O)c1cc(F)c(-c2cc[nH]n2)nc1NCCc1cccc(F)c1 (stereo partly drawn) [N-{[(2R)-1-((2S)-2-aminopropanoyl)pyrrolidin-2-yl]methyl}(5-fluoro-2-{[2-(3-fluorophenyl)ethyl]amino}-6-pyrazol-3-yl(3-pyridyl))carboxamide],314
6,CC(C)(C)OC(=O)NC[C@H](NC(=O)c1ccc(-c2ccccc2C#N)nc1NCCc1cccc(F)c1)C(=O)O [(2S)-3-[(tert-butoxy)carbonylamino]-2-[(6-(2-cyanophenyl)-2-{[2-(3-fluorophenyl)ethyl]amino}(3-pyridyl))carbonylamino]propanoic acid],30400
7,NCCCC(=O)N1CCCC1CNC(=O)c1cc(F)c(-c2cc[nH]n2)nc1NCCc1cccc(F)c1 [N-{[(2R)-1-(4-aminobutanoyl)pyrrolidin-2-yl]methyl}(5-fluoro-2-{[2-(3-fluorophenyl)ethyl]amino}-6-pyrazol-3-yl(3-pyridyl))carboxamide],169
8,CC(=O)N1CCC[C@H]1CNC(=O)c1ccc(-c2ccccc2)nc1NCCc1ccccn1 [N-[((2S)-1-acetylpyrrolidin-2-yl)methyl]{6-phenyl-2-[(2-(2-pyridyl)ethyl)amino](3-pyridyl)}carboxamide],15700
9,N#Cc1ccccc1-c1ccc(C(=O)NC[C@H]2CN(C(=O)CN)CCN2)c(NCCc2cccc(F)c2)n1 [N-{[(2S)-4-(2-aminoacetyl)piperazin-2-yl]methyl}(6-(2-cyanophenyl)-2-{[2-(3-fluorophenyl)ethyl]amino}(3-pyridyl))carboxamide],8880
10,NCc1cc(C(=O)NCc2cccnc2)c(NCCc2cccc(F)c2)nc1-c1ccccc1 [(5-(aminomethyl)-2-{[2-(3-fluorophenyl)ethyl]amino}-6-phenyl(3-pyridyl))-N-(3-pyridylmethyl)carboxamide],8900
11,C[C@H](CO)CNC(=O)c1cc(F)c(-c2cnn(C)c2)nc1NCCc1cccc(F)c1 [N-((2S)-3-hydroxy-2-methylpropyl)(5-fluoro-2-{[2-(3-fluorophenyl)ethyl]amino}-6-(1-methylpyrazol-4-yl)(3-pyridyl))carboxamide],90
12,N#Cc1ccccc1-c1ccc(C(=O)NCC2CCCCCN2)c(NCCc2cccc(F)c2)n1 (stereo not shown) [N-(azaperhydroepin-2-ylmethyl)(6-(2-cyanophenyl)-2-{[2-(3-fluorophenyl)ethyl]amino}(3-pyridyl))carboxamide],2500
13,CC(=O)NCCNC(=O)c1ccc(-c2ccccc2C#N)nc1NCCc1cccc(F)c1 [N-{2-[(6-(2-cyanophenyl)-2-{[2-(3-fluorophenyl)ethyl]amino}-3-pyridyl)carbonylamino]ethyl}acetamide],958
14,Cn1cc(-c2nc(NCCc3cccc(F)c3)c(C(=O)NCCCNC(=O)CNC(=O)OC(C)(C)C)cc2F)cn1 [2-[(tert-butoxy)carbonylamino]-N-{3-[(5-fluoro-2-{[2-(3-fluorophenyl)ethyl]amino}-6-(1-methylpyrazol-4-yl)(3-pyridyl))carbonylamino]propyl}acetamide],768
15,CN(C)CCNC(=O)CNC(=O)c1ccc(-c2ccccc2C#N)nc1NCCc1cccc(F)c1 [N-[2-(dimethylamino)ethyl]-2-[(6-(2-cyanophenyl)-2-{[2-(3-fluorophenyl)ethyl]amino}(3-pyridyl))carbonylamino]acetamide],9310
16,O=C(NCc1cccnc1)c1ccc(-c2ccccc2)nc1NCCN1CCOCC1 [{2-[(2-morpholin-4-ylethyl)amino]-6-phenyl(3-pyridyl)}-N-(3-pyridylmethyl)carboxamide],37300
17,CC(C)CCNc1nc(-c2ccccc2)ccc1C(=O)NCc1cccnc1 [{2-[3-methylbutyl)amino]-6-phenyl(3-pyridyl)}-N-(3-pyridylmethyl)carboxamide],2480

# Further molecules by falling IC50, results first:
row,IC50 [nM],Structure (SMILES)
1,21900,O=C(O)c1cccc(CCNc2nc(-c3ccccc3)ccc2C(=O)NCc2cccnc2)c1 [3-[2-({6-phenyl-3-[N-(3-pyridylmethyl)carbamoyl]-2-pyridyl}amino)ethyl]benzoic acid]
2,11700,N#Cc1ccccc1-c1ccc(C(=O)NCCCN2C(=O)CC[C@H]2CN)c(NCCc2cccc(F)c2)n1 [N-{3-[(5S)-5-(aminomethyl)-2-oxopyrrolidinyl]propyl}(6-(2-cyanophenyl)-2-{[2-(3-fluorophenyl)ethyl]amino}(3-pyridyl))carboxamide]
3,9630,NCCCN1C(=O)CNC[C@@H]1CNC(=O)c1ccc(-c2cc[nH]n2)nc1NCCc1cccc(F)c1 [N-{[(2R)-1-(3-aminopropyl)-6-oxopiperazin-2-yl]methyl}(2-{[2-(3-fluorophenyl)ethyl]amino}-6-pyrazol-3-yl(3-pyridyl))carboxamide]
4,6720,CN1CCN(C(=O)CCCN)C[C@@H]1CNC(=O)c1ccc(-c2ccccc2C#N)nc1NCCc1cccc(F)c1 [N-{[(2S)-4-(4-aminobutanoyl)-1-methylpiperazin-2-yl]methyl}(6-(2-cyanophenyl)-2-{[2-(3-fluorophenyl)ethyl]amino}(3-pyridyl))carboxamide]
5,2730,Cn1ccc(CNC(=O)c2ccc(-c3ccccc3)nc2NCCc2ccccn2)n1 [N-[(1-methylpyrazol-3-yl)methyl]{6-phenyl-2-[(2-(2-pyridyl)ethyl)amino](3-pyridyl)}carboxamide]
6,1490,NCCn1ccc(CNC(=O)c2ccc(-c3cn[nH]c3)nc2NCCc2cccc(F)c2)n1 [N-{[1-(2-aminoethyl)pyrazol-3-yl]methyl}(2-{[2-(3-fluorophenyl)ethyl]amino}-6-pyrazol-4-yl(3-pyridyl))carboxamide]
7,927,"CC1(C)OCC(CNC(=O)c2cc(F)c(-c3cn[nH]c3)nc2NCCc2cccc(F)c2)CO1 [N-[(2,2-dimethyl(1,3-dioxan-5-yl))methyl](5-fluoro-2-{[2-(3-fluorophenyl)ethyl]amino}-6-pyrazol-4-yl(3-pyridyl))carboxamide]"
8,515,C[C@H](N)CNC(=O)c1ccc(-c2ccccc2C#N)nc1NCCc1cccc(F)c1 [N-((2S)-2-aminopropyl)(6-(2-cyanophenyl)-2-{[2-(3-fluorophenyl)ethyl]amino}(3-pyridyl))carboxamide]
9,381,Cc1cc(C(=O)NC[C@H]2CCCN2C(=O)CCCN)c(NCCc2cccc(F)c2)nc1-c1cnn(C)c1 [N-{[(2R)-1-(4-aminobutanoyl)pyrrolidin-2-yl]methyl}(2-{[2-(3-fluorophenyl)ethyl]amino}-5-methyl-6-(1-methylpyrazol-4-yl)(3-pyridyl))carboxamide]
10,352,N#Cc1ccccc1-c1ccc(C(=O)NCC2CCCC(CN)C2)c(NCCc2cccc(F)c2)n1 (stereo not shown) [N-{[3-(aminomethyl)cyclohexyl]methyl}(6-(2-cyanophenyl)-2-{[2-(3-fluorophenyl)ethyl]amino}(3-pyridyl))carboxamide]
11,298,CNc1ccc(CNC(=O)c2ccc(-c3ccccc3C#N)nc2NCCc2cccc(F)c2)cn1 [(6-(2-cyanophenyl)-2-{[2-(3-fluorophenyl)ethyl]amino}(3-pyridyl))-N-{[6-(methylamino)(3-pyridyl)]methyl}carboxamide]
12,238,COCCNC(=O)c1ccc(-c2ccccc2C#N)nc1NCCc1cccc(F)c1 [(6-(2-cyanophenyl)-2-{[2-(3-fluorophenyl)ethyl]amino}(3-pyridyl))-N-(2-methoxyethyl)carboxamide]
13,99,C[C@H](N)C(=O)N1CCC[C@@H]1CNC(=O)c1cc(F)c(-c2cnn(C)c2)nc1NCCc1cccc(F)c1 [N-{[(2R)-1-((2S)-2-aminopropanoyl)pyrrolidin-2-yl]methyl}(5-fluoro-2-{[2-(3-fluorophenyl)ethyl]amino}-6-(1-methylpyrazol-4-yl)(3-pyridyl))carboxamide]
14,59,N#Cc1ccccc1-c1ccc(C(=O)NCC2CCCN(CCO)C2=O)c(NCCc2cccc(F)c2)n1 (stereo not shown) [(6-(2-cyanophenyl)-2-{[2-(3-fluorophenyl)ethyl]amino}(3-pyridyl))-N-{[1-(2-hydroxyethyl)-2-oxo(3-piperidyl)]methyl}carboxamide]
15,38,N#Cc1cc(F)ccc1-c1ccc(C(=O)NCc2cccnc2)c(NCCc2cccc(F)c2)n1 [(6-(2-cyano-4-fluorophenyl)-2-{[2-(3-fluorophenyl)ethyl]amino}(3-pyridyl))-N-(3-pyridylmethyl)carboxamide]
16,32,N#Cc1ccccc1-c1ccc(C(=O)NCCc2cccc(CN)n2)c(NCCc2cccc(F)c2)n1 [N-{2-[6-(aminomethyl)(2-pyridyl)]ethyl}(6-(2-cyanophenyl)-2-{[2-(3-fluorophenyl)ethyl]amino}(3-pyridyl))carboxamide]
17,13,N#Cc1ccccc1-c1ccc(C(=O)NCc2cccnc2NCCN)c(NCCc2cccc(F)c2)n1 [N-({2-[(2-aminoethyl)amino](3-pyridyl)}methyl)(6-(2-cyanophenyl)-2-{[2-(3-fluorophenyl)ethyl]amino}(3-pyridyl))carboxamide]
